Results: patent publication US20040096494A1, “Composition” (priority 2003, published 2004)

Details: minipig, in vivo

Row | oral bioavailability, expressed as the systemic exposure to ketoprofen relative to intravenous ketoprofen | oral bioavailability, expressed as the systemic exposure to diclofenac relative to intravenous diclofenac | SMILES
1 | 82% |  | CC(C(=O)OCCCCCCO[N+](=O)[O-])c1cccc(C(=O)c2ccccc2)c1 (stereo not drawn) [Compound of formula Ic]
2 | 80% |  | CC(C(=O)OCc1ccc(CO[N+](=O)[O-])cc1)c1cccc(C(=O)c2ccccc2)c1 (stereo not drawn) [Compound of formula If]
3 |  | 85% | O=C(Cc1ccccc1Nc1c(Cl)cccc1Cl)OCCCCO[N+](=O)[O-] [Compound of formula Ig]
